Test results as given in the supplement of paper PMC8967900.

test system: COG-LL-394h; experiment: selective drug sensitivity score (sDSS, relative to normal bone marrow) (sDSS (score)); higher = more potent and effective on the cell line relative to normal bone marrow cells; settings: 72 h
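Further: ALL cell lines in 384-well plates, five doses spanning 10,000-fold, each plate scaled between vehicle and 100 µmol/L benzalkonium chloride controls, sDSS an adapted area-under-curve metric.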

Point of comparison: `COc1cc(OC)c(/C=C/S(=O)(=O)Cc2ccc(OC)c(NCC(=O)O)c2)c(OC)c1` [Rigosertib] (top concentration 10000 nM), “selective drug sensitivity score” value 6.76. Against it:
- C1=N/C2=N/c3ccc(OCCN4CCCC4)c(c3)COC/C=C/COCc3cccc(c3)C(=C1)N2 [Pacritinib] (top concentration 10000 nM) — lower, -4
- Cc1[nH]c2ccccc2c1CCNCc1ccc(/C=C/C(=O)NO)cc1 [Panobinostat] (top concentration 1000 nM) — lower, 2.84
- Cc1ccc(Nc2nccc(N(C)c3ccc4c(C)n(C)nc4c3)n2)cc1S(N)(=O)=O [Pazopanib] (top concentration 10000 nM) — lower, -0.76
- Nc1nc2[nH]cc(CCc3ccc(C(=O)N[C@@H](CCC(=O)O)C(=O)O)cc3)c2c(=O)[nH]1 [Pemetrexed] (top concentration 10000 nM) — lower, 1.58
- Cc1ccc(C(=O)Nc2ccc(CN3CCN(C)CC3)c(C(F)(F)F)c2)cc1C#Cc1cnc2cccnn12 [Ponatinib] (top concentration 1000 nM) — lower, 1.12
- C[C@]12C=CC(=O)C=C1CC[C@@H]1[C@@H]2[C@@H](O)C[C@@]2(C)[C@H]1CC[C@]2(O)C(=O)CO [Prednisolone] (top concentration 10000 nM) — lower, -3
- CC(C)(C)c1cc(NC(=O)Nc2ccc(-c3cn4c(n3)sc3cc(OCCN5CCOCC5)ccc34)cc2)no1 [Quizartinib] (top concentration 1000 nM) — lower, -0.32
- Nc1cc(F)ccc1NC(=O)/C=C/c1cnn(C/C=C/c2ccccc2)c1 [RGFP966] (top concentration 10000 nM) — lower, 2.34
- CNC(=O)c1cc(Oc2ccc(NC(=O)Nc3ccc(Cl)c(C(F)(F)F)c3)c(F)c2)ccn1 [Regorafenib] (top concentration 10000 nM) — lower, 5.94
- CN(C)Cc1ccc(S(=O)(=O)n2ccc(/C=C/C(=O)NO)c2)cc1 [Resminostat] (top concentration 10000 nM) — lower, 2.04
- COc1ccc(CCc2nc3cc(-c4c(C)noc4C)ccc3n2C[C@H](C)N2CCOCC2)cc1Cl [SGC-CBP30] (top concentration 25000 nM) — lower, 5.38
- CCS(=O)(=O)c1cccc(-c2cc(C(=O)NC3CCN(C)CC3)c(C)c3[nH]c4ncc(C)cc4c23)c1 [TAK-901] (top concentration 1000 nM) — lower, 3.66
- Nc1nc(NC2CC2)cc(-c2cccc(Cl)c2Cl)n1 [TH588] (top concentration 25000 nM) — lower, -0.58
- CC(=O)Nc1ccc(C(=O)Nc2ccccc2N)cc1 [Tacedinaline] (top concentration 1000 nM) — lower, -0.02
- Cn1ncnc1[C@H]1c2n[nH]c(=O)c3cc(F)cc(c23)N[C@@H]1c1ccc(F)cc1 [Talazoparib] (top concentration 1000 nM) — lower, -0.62
- COc1cccc2c1c(O)c(C(=O)N(C)c1ccc(C(F)(F)F)cc1)c(=O)n2C [Tasquinimod] (top concentration 10000 nM) — lower, -0.42
- Nc1nc2[nH]cnc2c(=S)[nH]1 [Thioguanine] (top concentration 10000 nM) — lower, 2.44

test system: RCH-ACV; experiment: as above; settings: 72 h

Point of comparison: `Cc1ccc(Nc2nccc(N(C)c3ccc4c(C)n(C)nc4c3)n2)cc1S(N)(=O)=O` [Pazopanib] (top concentration 10000 nM), “selective drug sensitivity score” value 10.5. Against it:
- C1=N/C2=N/c3ccc(OCCN4CCCC4)c(c3)COC/C=C/COCc3cccc(c3)C(=C1)N2 [Pacritinib] (top concentration 10000 nM) — lower, 9.2
- Cc1[nH]c2ccccc2c1CCNCc1ccc(/C=C/C(=O)NO)cc1 [Panobinostat] (top concentration 1000 nM) — higher, 14.1
- Nc1nc2[nH]cc(CCc3ccc(C(=O)N[C@@H](CCC(=O)O)C(=O)O)cc3)c2c(=O)[nH]1 [Pemetrexed] (top concentration 10000 nM) — higher, 28.8
- Cc1ccc(C(=O)Nc2ccc(CN3CCN(C)CC3)c(C(F)(F)F)c2)cc1C#Cc1cnc2cccnn12 [Ponatinib] (top concentration 1000 nM) — higher, 14.8
- C[C@]12C=CC(=O)C=C1CC[C@@H]1[C@@H]2[C@@H](O)C[C@@]2(C)[C@H]1CC[C@]2(O)C(=O)CO [Prednisolone] (top concentration 10000 nM) — higher, 26.8
- CC(C)(C)c1cc(NC(=O)Nc2ccc(-c3cn4c(n3)sc3cc(OCCN5CCOCC5)ccc34)cc2)no1 [Quizartinib] (top concentration 1000 nM) — lower, 2.08
- Nc1cc(F)ccc1NC(=O)/C=C/c1cnn(C/C=C/c2ccccc2)c1 [RGFP966] (top concentration 10000 nM) — higher, 14.8
- CNC(=O)c1cc(Oc2ccc(NC(=O)Nc3ccc(Cl)c(C(F)(F)F)c3)c(F)c2)ccn1 [Regorafenib] (top concentration 10000 nM) — higher, 10.9
- CN(C)Cc1ccc(S(=O)(=O)n2ccc(/C=C/C(=O)NO)c2)cc1 [Resminostat] (top concentration 10000 nM) — higher, 12.2
- COc1cc(OC)c(/C=C/S(=O)(=O)Cc2ccc(OC)c(NCC(=O)O)c2)c(OC)c1 [Rigosertib] (top concentration 10000 nM) — higher, 17.3
- COc1ccc(CCc2nc3cc(-c4c(C)noc4C)ccc3n2C[C@H](C)N2CCOCC2)cc1Cl [SGC-CBP30] (top concentration 25000 nM) — lower, 7.88
- CCS(=O)(=O)c1cccc(-c2cc(C(=O)NC3CCN(C)CC3)c(C)c3[nH]c4ncc(C)cc4c23)c1 [TAK-901] (top concentration 1000 nM) — higher, 10.7
- Nc1nc(NC2CC2)cc(-c2cccc(Cl)c2Cl)n1 [TH588] (top concentration 25000 nM) — lower, 3.52
- CC(=O)Nc1ccc(C(=O)Nc2ccccc2N)cc1 [Tacedinaline] (top concentration 1000 nM) — lower, 0.48
- Cn1ncnc1[C@H]1c2n[nH]c(=O)c3cc(F)cc(c23)N[C@@H]1c1ccc(F)cc1 [Talazoparib] (top concentration 1000 nM) — higher, 10.7
- COc1cccc2c1c(O)c(C(=O)N(C)c1ccc(C(F)(F)F)cc1)c(=O)n2C [Tasquinimod] (top concentration 10000 nM) — lower, -0.42
- Nc1nc2[nH]cnc2c(=S)[nH]1 [Thioguanine] (top concentration 10000 nM) — higher, 14.3

test system: PF-382; experiment: as above; settings: 72 h

Point of comparison: `C[C@]12C=CC(=O)C=C1CC[C@@H]1[C@@H]2[C@@H](O)C[C@@]2(C)[C@H]1CC[C@]2(O)C(=O)CO` [Prednisolone] (top concentration 10000 nM), “selective drug sensitivity score” value -1.6. Against it:
- C1=N/C2=N/c3ccc(OCCN4CCCC4)c(c3)COC/C=C/COCc3cccc(c3)C(=C1)N2 [Pacritinib] (top concentration 10000 nM) — lower, -7.5
- Cc1[nH]c2ccccc2c1CCNCc1ccc(/C=C/C(=O)NO)cc1 [Panobinostat] (top concentration 1000 nM) — higher, 4.34
- Cc1ccc(Nc2nccc(N(C)c3ccc4c(C)n(C)nc4c3)n2)cc1S(N)(=O)=O [Pazopanib] (top concentration 10000 nM) — higher, 1.74
- Nc1nc2[nH]cc(CCc3ccc(C(=O)N[C@@H](CCC(=O)O)C(=O)O)cc3)c2c(=O)[nH]1 [Pemetrexed] (top concentration 10000 nM) — higher, 12.1
- Cc1ccc(C(=O)Nc2ccc(CN3CCN(C)CC3)c(C(F)(F)F)c2)cc1C#Cc1cnc2cccnn12 [Ponatinib] (top concentration 1000 nM) — higher, 6.62
- CC(C)(C)c1cc(NC(=O)Nc2ccc(-c3cn4c(n3)sc3cc(OCCN5CCOCC5)ccc34)cc2)no1 [Quizartinib] (top concentration 1000 nM) — higher, 0.98
- Nc1cc(F)ccc1NC(=O)/C=C/c1cnn(C/C=C/c2ccccc2)c1 [RGFP966] (top concentration 10000 nM) — higher, 11.1
- CNC(=O)c1cc(Oc2ccc(NC(=O)Nc3ccc(Cl)c(C(F)(F)F)c3)c(F)c2)ccn1 [Regorafenib] (top concentration 10000 nM) — higher, 4.34
